In this assay the test system is BDF1 mice, M5076 sarcoma ip, median survival T/C. Nature of the assay: NCI In Vivo Anticancer Drug Screen. Data for tumor model Sarcoma M5076 (intraperitoneal) in B6D2F1 (BDF1) mice. Particulars: endpoint: median survival time, higher = longer survival. On the procedure:
The antitumor activity of compounds was measured in mice bearing transplantable tumors. Survival or tumor size were measured and the results are expressed as the measurement made in the treated group (T) divided by the measurement made in the vehicle treated control group (C). The tumor model used in this assay is Sarcoma M5076 (intraperitoneal) in B6D2F1 (BDF1) mice

In PubChem BioAssay AID286 (DTP/NCI, 2004) one finds T/C data, which are given here for three compounds.

Inconclusive results and toxic doses are left out.

As to `O=C1c2c(O)ccc(O)c2C(=O)c2c(NCCNCCO)ccc(NCCNCCO)c21`, the T/C was 236 % of control (dose: 0.25 mg/kg/injection, schedule: Q04DX004 (ip), vehicle: water); 260 % of control (dose: 0.5 mg/kg/injection, schedule: Q04DX004 (ip), vehicle: water); 401 % of control (dose: 0.5 mg/kg/injection, schedule: Q04DX005 (ip), vehicle: saline); 260 % of control (dose: 1.0 mg/kg/injection, schedule: Q04DX004 (ip), vehicle: water); 321 % of control (dose: 1.0 mg/kg/injection, schedule: Q04DX005 (ip), vehicle: saline); 260 % of control (dose: 2.0 mg/kg/injection, schedule: Q04DX004 (ip), vehicle: water). In addition, the T/C reads like this: (dose: 2.0 mg/kg/injection, schedule: Q04DX005 (ip), vehicle: saline) 99 % of control; (dose: 4.0 mg/kg/injection, schedule: Q04DX004 (ip), vehicle: water) 100 % of control.

For the compound `CC1(C)N=C(N)N=C(N)N1c1ccc(CCCCc2ccc(S(=O)(=O)F)cc2Cl)c(Cl)c1`, the T/C by setting is: (dose: 5.0 mg/kg/injection, schedule: Q01DX009 (ip), vehicle: Klucel (hydroxypropylcellulose) (HPC)) 220 % of control; (dose: 10.0 mg/kg/injection, schedule: Q01DX009 (ip), vehicle: Klucel (hydroxypropylcellulose) (HPC)) 251 % of control; (dose: 20.0 mg/kg/injection, schedule: Q01DX009 (ip), vehicle: Klucel (hydroxypropylcellulose) (HPC)) 303 % of control; (dose: 40.0 mg/kg/injection, schedule: Q01DX009 (ip), vehicle: Klucel (hydroxypropylcellulose) (HPC)) 388 % of control; (dose: 40.0 mg/kg/injection, schedule: Q01DX009 (ip), vehicle: saline with Tween-80) 224 % of control; (dose: 60.0 mg/kg/injection, schedule: Q01DX009 (ip), vehicle: saline with Tween-80) 224 % of control.

Regarding `CC1=C[P+](c2ccccc2)(c2ccccc2)C=C(c2ccccc2)O1`, the T/C was 99 % of control (dose: 1.25 mg/kg/injection, schedule: Q04DX004 (ip), vehicle: saline + alcohol); 107 % of control (dose: 2.5 mg/kg/injection, schedule: Q04DX004 (ip), vehicle: saline + alcohol); 118 % of control (dose: 5.0 mg/kg/injection, schedule: Q04DX004 (ip), vehicle: saline + alcohol).
